Publication PMC12692291, “Development and In Vitro Evaluation of [^64Cu]Cu-NOTA-TP-PSMA, a Novel Radiotheranostic Agent Against Prostate Cancer” (International Journal of Molecular Sciences, 2025)

Tests used:
LNCaP cells [1] = assay: Nuclear localization in LNCaP cells; assay type: cell-based
Method: (§1) To assess nuclear localization, LNCaP and HEK-293 cells were incubated with 1 MBq of [^64Cu]Cu-NOTA-TP-PSMA 1 for 24, 48, and 72 h. Nuclear extraction was performed following a previously established protocol. Following incubation, cells were lysed and fractionated using cytoskeletal buffer to isolate nuclear components. Nuclear and cytoplasmic radioactivity were measured using a HIDEX automatic gamma counter. Data were used to evaluate time-dependent nuclear accumulation of the tracer.

HEK-293 cells [2] = assay: Nuclear localization in HEK-293 cells; assay type: cell-based, human
Method: as §1

HEK-293 cells [3] = assay: Efflux (retention) study in HEK-293 cells; assay type: cell-based, human; details: Table S3 second part (HEK-293)
Method: (§2) Efflux studies were conducted by incubating the cells with the compound for an initial period of 1 h, after which the incubation medium was replaced with fresh, compound-free medium. The retained intracellular radioactivity was then measured at various time points up to 24 h and expressed as the percentage of retention relative to the 0-h time point, defined as the time immediately after medium replacement.

LNCaP cells [4] = assay type: cell-based; details: LNCaP, 24 h
Method: The cytotoxicity of compounds 1–3, ^natCu-NOTA-TP-PSMA, and cisplatin (platinum-based drug) were assessed with PrestoBlue, a resazurin-based method to assess mitochondrial function in LNCaP and HEK-293 cells at 24, 48, and 72 h. Effective concentration (EC50) values summarized in Table 3 were calculated from the dose–response curves of each compound (Figure S7).
Cytotoxicity was evaluated using a resazurin-based assay (PrestoBlue) in 96-well plates. LNCaP (15,000 cells/well) and HEK-293 (10,000 cells/well) were seeded and incubated for 72 h. Cells were then treated with serial dilutions of [^64Cu]Cu-NOTA-TP-PSMA and controls for 24, 48, or 72 h. After treatment, cells were rinsed with PBS and incubated with PrestoBlue reagent for 40 min. Fluorescence was measured at 570 nm (excitation) and 610 nm (emission). Background readings from blank wells were subtracted. Cell viability was calculated relative to untreated controls. IC50 values were determined using dose–response curves. Controls included [^64Cu]Cu-NOTA-TP, [^64Cu]Cu-NOTA-PSMA, ^natCu-NOTA-TP-PSMA, and cisplatin (0–500 µM in 0.9% saline). All assays were performed in triplicate and all data presented in Results are the average of three independent experiments. TP conjugates were dissolved in 1% DMSO and diluted in saline. Inhibitory concentration 50 (IC50) values were calculated to quantify the effectiveness of the compounds.

LNCaP cells [5] = assay: Efflux (retention) study in LNCaP cells; assay type: cell-based; details: Table S3 first part (LNCaP)
Method: as §2

[6] = In vitro plasma stability and plasma protein binding; assay type: in vitro ADME; details: mouse plasma, 37 °C, 24 h
Method: The in vitro plasma stability of [^64Cu]Cu-NOTA-TP-PSMA 1 was evaluated by incubating […] of the radiolabeled compound (in 250 μL PBS) with 250 μL of freshly collected mouse plasma at 37 °C for up to 24 h. At predefined time points, (1 h, 4 h and 24 h) plasma proteins were precipitated by adding ethanol (1:1, v/v) in two successive steps, followed by vortexing (1 min) and centrifugation at 7000 rpm for 10 min. The resulting supernatant was subjected to ultracentrifugation to ensure complete removal of particulate matter.
For assessment of in vitro stability, the clarified supernatant was analyzed by radio-instant thin-layer chromatography (radio-iTLC) on C18 silica gel plates, using 0.1 M sodium citrate buffer (pH 5.5) as the mobile phase. Radiodetection was performed using an Instant Imager system (BioScan, Washington, DC, USA). Free [^64Cu]Cu(OAc)2 and intact [^64Cu]Cu-NOTA-TP-PSMA served as controls to facilitate peak identification. Under these chromatographic conditions, the radiolabeled complex remained at the origin, while free copper migrated with the solvent front (Figure S5).
To quantify the extent of protein binding, radioactivity in both the protein pellet and the supernatant was measured using a dose calibrator. The percentage of protein-bound radioactivity was calculated by comparing the activity in the precipitated fraction relative to the total recovered activity. […]

SMILES: O=C(O)CC[C@H](NC(=O)N[C@@H](CCCCNC(=O)[C@@H](Cc1ccc2ccccc2c1)NC(=O)C1CCC(CNC(=O)C(CCCCNC(=O)c2cc3[n+]4c(c2)-c2cccc[n+]2[Pt-2]4([Cl])[n+]2ccccc2-3)NC(=O)COCCOCCNC(=O)CN2CCN3CCN(CC2)CC(=O)[O][64Cu][O]C(=O)C3)CC1)C(=O)O)C(=O)O (some centres unmarked) [[^64Cu]Cu-NOTA-TP-PSMA 1]
- nuclear uptake fold difference LNCaP vs HEK-293 (LNCaP cells [1]; 24 h): 84 fold
- nuclear uptake in LNCaP cells (LNCaP cells [1]; 24 h): ~ 7 % CPM/10^6 cells
- nuclear uptake fold difference LNCaP vs HEK-293 (LNCaP cells [1]; 48 h): 36 fold
- nuclear uptake fold difference LNCaP vs HEK-293 (LNCaP cells [1]; 72 h): 1.8 fold
- fold higher nuclear uptake than monomer 2 (LNCaP cells [1]; LNCaP, 24 h): ~ 13 fold
- fold higher nuclear uptake than monomer 3 (LNCaP cells [1]; LNCaP, 24 h): ~ 16 fold
- Nuclear uptake LNCaP (LNCaP cells [1]; Table S4, 24 h): 6.96 ± 1.97 %ID/10⁶ cells
- Nuclear uptake LNCaP (LNCaP cells [1]; Table S4, 48 h): 5.66 ± 2.09 %ID/10⁶ cells
- Nuclear uptake LNCaP (LNCaP cells [1]; Table S4, 72 h): 1.53 ± 0.38 %ID/10⁶ cells
- Nuclear uptake HEK-293 (HEK-293 cells [2]; Table S4, 24 h): 0.08 ± 0.05 %ID/10⁶ cells
- Nuclear uptake HEK-293 (HEK-293 cells [2]; Table S4, 48 h): 0.15 ± 0.06 %ID/10⁶ cells
- Nuclear uptake HEK-293 (HEK-293 cells [2]; Table S4, 72 h): 0.85 ± 0.84 %ID/10⁶ cells
- Retained activity (HEK-293 cells [3]; 0 h after medium replacement): 100 ± 0 %CPM/106 cells
- Retained activity (HEK-293 cells [3]; 1 h): 97.8 ± 4.3 %CPM/106 cells
- Retained activity (HEK-293 cells [3]; 2 h): 62.6 ± 18.6 %CPM/106 cells
- Retained activity (HEK-293 cells [3]; 4 h): 41.5 ± 9.9 %CPM/106 cells
- Retained activity (HEK-293 cells [3]; 24 h): 17.1 ± 1.9 %CPM/106 cells
- fold more potent than monomer 2 (LNCaP cells [4]): ~ 5 fold
- fold more potent than monomer 3 (LNCaP cells [4]): ~ 16 fold
- Retained activity (LNCaP cells [5]; 0 h after medium replacement): 100 ± 0 %CPM/106 cells
- Retained activity (LNCaP cells [5]; 1 h): 85.36 ± 11.10 %CPM/106 cells
- Retained activity (LNCaP cells [5]; 2 h): 71.36 ± 13.48 %CPM/106 cells
- Retained activity (LNCaP cells [5]; 4 h): 67.8 ± 9.3 %CPM/106 cells
- Retained activity (LNCaP cells [5]; 24 h): 51.7 ± 9.4 %CPM/106 cells
- free 64Cu2+ in protein-free supernatant (radio-iTLC) [6]: no evidence of free ^64Cu^2+
- total radioactivity bound to plasma proteins [6]: approximately 91%
